Results: patent publication EP4389749A1, “SUBSTITUTED 3,7-DIHYDRO-1H-PURINE-2,6-DIONES AND USE THEREOF” (invIOs GmbH, priority 2022, dated 2024)
One block for each compound: values may come before it.

Assays:
CD4+ T-cells = experiment: Immunostimulation assay with anti-CD3/28 stimulated T-cells, CD69 expression by flow cytometry; assay type: cell-based, human; conditions: T-cell; purified human CD4+ and CD8+ T-cells, 1 µg/ml anti-CD3, 1 µg/ml anti-CD28, 16 hours, surface FACS; read-out: EC50 CD4+
Procedure: (§1) Selection of potent compounds based on structure activity relation (SAR) using human, anti-CD3/28 stimulated T-cells. Enhanced activation of stimulated T-cells is measured by CD69 expression by flowcytometry.
(§2) White blood cell enriched buffy coats were ordered from the Austrian red cross, diluted with PBS to a total volume of 480 ml, 30 ml transferred to 50ml falcons and 11 ml lymphoprep added. Cell suspensions were centrifuged for 20 min at 2200 rpm and the PBMC containing layer transferred, three times washed with PBS and counted.
(§3) 10^7 PBMCs were magnetically labeled with CD4 and CD8 microbeads according to manufacturer's instructions and separated using autoMACS device. For dose response experiments with purified CD4+CD8+ T-cells 80000 cells were seeded per 96-well flat bottom cell culture dish.
(§4) 10 mM compounds of the invention stocks were further diluted using DMSO and equal amounts transferred to T-cell containing 96-wells. Final concentrations tested were: 30 µM, 10 µM, 3 µM, 1 µM, 0.3 µM, 0.1 µM, 0.03 µM, 0.01 µM, 0.003 µM and 0.001 µM.
(§5) For the stimulation assays 80.000 purified CD4+ and CD8+ T-cells were seeded per 96-well and incubated with 1 µg/ml anti-CD3, 1 µg/ml anti-CD28 and compounds of the invention ranging from 0.001 µM to 30 µM. DMSO only wells served as control to determine minimal T-cell activation upon stimulation and CD3/28 coupled Dynabeads were used to determine the maximal activation of T-cells. Cells were cultured for 16 hours in a humidified incubator at 37 °C and 5 % CO2.
(§6) T-cells were stained for surface antigens (anti-CD4 and anti-CD8) and cell activation markers (anti-CD25 and anti-CD69). Additionally, a fixable viability dye was used to stain viable cells. Staining was performed for 15 minutes and cells analyzed using a Fortessa flow cytometer and FlowJo Software. EC50s were calculated using GraphPad Prism® and a variable slope model (agonist vs. response - variable slope).

CD8+ T-cells = experiment: as above; assay type: cell-based, human; conditions: T-cell; purified human CD4+ and CD8+ T-cells, 1 µg/ml anti-CD3, 1 µg/ml anti-CD28, 16 hours, surface FACS; read-out: EC50 CD8+
Procedure: as §1, §2, §3, §4, §5, §6

SMILES: COc1cc(-c2nc3c(c(=O)[nH]c(=O)n3CC(C)O)n2C)ccc1OCc1ccc(OC(F)F)cc1 (centres unmarked) [Compound 85, 8-(4-((4-(difluoromethoxy)benzyl)oxy)-3-methoxyphenyl)-3-(2-hydroxypropyl)-7-methyl-3,7-dihydro-1H-purine-2,6-dione]
- EC50 (CD4+ T-cells): 100 to 500 nM
- EC50 (CD8+ T-cells): 100 to 500 nM

SMILES: COc1cc(-c2nc3c(c(=O)[nH]c(=O)n3CC(O)C(F)F)n2C)ccc1OCc1ccc(F)cc1 (centres unmarked) [Compound 84, 3-(3,3-difluoro-2-hydroxypropyl)-8-(4-((4-fluorobenzyl)oxy)-3-methoxyphenyl)-7-methyl-3,7-dihydro-1H-purine-2,6-dione]
- EC50 (CD4+ T-cells): 100 to 500 nM
- EC50 (CD8+ T-cells): < 100 nM

SMILES: COc1ccc(COc2ccc(-c3nc4c(c(=O)[nH]c(=O)n4CC(C)O)n3C)cc2F)cc1 (centres unmarked) [Compound 114, 8-(3-fluoro-4-((4-methoxybenzyl)oxy)phenyl)-3-(2-hydroxypropyl)-7-methyl-3,7-dihydro-1H-purine-2,6-dione]
- EC50 (CD4+ T-cells): 1000 to 5000 nM
- EC50 (CD8+ T-cells): 1000 to 5000 nM

SMILES: CC(O)Cn1c(=O)[nH]c(=O)c2c1nc(-c1ccc(OCc3ccc(C(F)F)cc3)c(F)c1)n2C (centres unmarked) [Compound 65, 8-(4-((4-(difluoromethyl)benzyl)oxy)-3-fluorophenyl)-3-(2-hydroxypropyl)-7-methyl-3,7-dihydro-1H-purine-2,6-dione]
- EC50 (CD4+ T-cells): 500 to 1000 nM
- EC50 (CD8+ T-cells): 100 to 500 nM

SMILES: COc1cc(-c2nc3c(c(=O)[nH]c(=O)n3CC(C)O)n2C)ccc1OCc1ccc(C#N)cc1 (centres unmarked) [Compound 90, 4-((4-(3-(2-hydroxypropyl)-7-methyl-2,6-dioxo-2,3,6,7-tetrahydro-1H-purin-8-yl)-2-methoxyphenoxy)methyl)benzonitrile]
- EC50 (CD4+ T-cells): 100 to 500 nM
- EC50 (CD8+ T-cells): 500 to 1000 nM

SMILES: Cc1cc(-c2nc3c(c(=O)[nH]c(=O)n3CC(C)O)n2C)ccc1OCc1ccccc1 (centres unmarked) [Compound 124, 8-(4-(benzyloxy)-3-methylphenyl)-3-(2-hydroxypropyl)-7-methyl-3,7-dihydro-1H-purine-2,6-dione]
- EC50 (CD4+ T-cells): 100 to 500 nM
- EC50 (CD8+ T-cells): 100 to 500 nM

SMILES: COc1cc(-c2nc3c(c(=O)[nH]c(=O)n3CC(O)C(F)F)n2C)ccc1OCc1ccc(OC(F)F)cc1 (centres unmarked) [Compound 83, 3-(3,3-difluoro-2-hydroxypropyl)-8-(4-((4-(difluoromethoxy)benzyl)oxy)-3-methoxyphenyl)-7-methyl-3,7-dihydro-1H-purine-2,6-dione]
- EC50 (CD4+ T-cells): < 100 nM
- EC50 (CD8+ T-cells): < 100 nM

SMILES: Cn1c(-c2ccc(OCc3ccccc3)c(OC(F)(F)F)c2)nc2c1c(=O)[nH]c(=O)n2CC(O)C(F)(F)F (centres unmarked) [Compound 119, 8-(4-(benzyloxy)-3-(trifluoromethoxy)phenyl)-7-methyl-3-(3,3,3-trifluoro-2-hydroxypropyl)-3,7-dihydro-1H-purine-2,6-dione]
- EC50 (CD4+ T-cells): < 100 nM
- EC50 (CD8+ T-cells): < 100 nM

SMILES: Cc1ccc(COc2ccc(-c3nc4c(c(=O)[nH]c(=O)n4CC(C)O)n3C)cc2)cc1 (centres unmarked) [Compound 77, 3-(2-hydroxypropyl)-7-methyl-8-(4-((4-methylbenzyl)oxy)phenyl)-3,7-dihydro-1H-purine-2,6-dione]
- EC50 (CD4+ T-cells): 500 to 1000 nM
- EC50 (CD8+ T-cells): 100 to 500 nM

SMILES: COc1cc(-c2nc3c(c(=O)[nH]c(=O)n3CC(O)C(F)F)n2C)ccc1OCc1ccccc1 (centres unmarked) [Compound 68, 8-(4-(benzyloxy)-3-methoxyphenyl)-3-(3,3-difluoro-2-hydroxypropyl)-7-methyl-3,7-dihydro-1H-purine-2,6-dione]
- EC50 (CD4+ T-cells): 100 to 500 nM
- EC50 (CD8+ T-cells): 100 to 500 nM

SMILES: Cc1ccc(COc2ccc(-c3nc4c(c(=O)[nH]c(=O)n4CC(C)O)n3C)cc2F)cc1 (centres unmarked) [Compound 115, 8-(3-fluoro-4-((4-methylbenzyl)oxy)phenyl)-3-(2-hydroxypropyl)-7-methyl-3,7-dihydro-1H-purine-2,6-dione]
- EC50 (CD4+ T-cells): 500 to 1000 nM
- EC50 (CD8+ T-cells): 500 to 1000 nM

SMILES: CC(O)Cn1c(=O)[nH]c(=O)c2c1nc(-c1ccc(OCc3ccccc3)c(OC(F)(F)F)c1)n2C (centres unmarked) [Compound 120, 8-(4-(benzyloxy)-3-(trifluoromethoxy)phenyl)-3-(2-hydroxypropyl)-7-methyl-3,7-dihydro-1H-purine-2,6-dione]
- EC50 (CD4+ T-cells): 100 to 500 nM
- EC50 (CD8+ T-cells): 100 to 500 nM

SMILES: Cc1ccc(COc2ccc(-c3nc4c(c(=O)[nH]c(=O)n4CC(O)CO)n3C)cc2F)cc1 (centres unmarked) [Compound 95, 3-(2,3-dihydroxypropyl)-8-(3-fluoro-4-((4-methylbenzyl)oxy)phenyl)-7-methyl-3,7-dihydro-1H-purine-2,6-dione]
- EC50 (CD4+ T-cells): 1000 to 5000 nM
- EC50 (CD8+ T-cells): 1000 to 5000 nM

SMILES: COc1cc(-c2nc3c(c(=O)[nH]c(=O)n3CC(O)CO)n2C)ccc1OCc1ccc(C)cc1 (centres unmarked) [Compound 94, 3-(2,3-dihydroxypropyl)-8-(3-methoxy-4-((4-methylbenzyl)oxy)phenyl)-7-methyl-3,7-dihydro-1H-purine-2,6-dione]
- EC50 (CD4+ T-cells): 1000 to 5000 nM
- EC50 (CD8+ T-cells): 1000 to 5000 nM

SMILES: Cc1ccc(COc2ccc(-c3nc4c(c(=O)[nH]c(=O)n4CC(C)O)n3C)cc2OC(F)(F)F)cc1 (centres unmarked) [Compound 122, 3-(2-hydroxypropyl)-7-methyl-8-(4-((4-methylbenzyl)oxy)-3-(trifluoromethoxy)phenyl)-3,7-dihydro-1H-purine-2,6-dione]
- EC50 (CD4+ T-cells): < 100 nM
- EC50 (CD8+ T-cells): < 100 nM

Results, then the compound that gave them:

- EC50 (CD4+ T-cells): 100 to 500 nM
- EC50 (CD8+ T-cells): 100 to 500 nM
SMILES: COc1cc(-c2nc3c(c(=O)[nH]c(=O)n3CC(C)O)n2C)ccc1OCc1ccc(C)cc1 (centres unmarked) [Compound 125, 3-(2-hydroxypropyl)-8-(3-methoxy-4-((4-methylbenzyl)oxy)phenyl)-7-methyl-3,7-dihydro-1H-purine-2,6-dione]

- EC50 (CD4+ T-cells): 500 to 1000 nM
- EC50 (CD8+ T-cells): 500 to 1000 nM
SMILES: CC(O)Cn1c(=O)[nH]c(=O)c2c1nc(-c1ccc(Oc3ccc(OC(F)F)cc3)c(Cl)c1)n2C (centres unmarked) [Compound 178, 8-(3-chloro-4-(4-(difluoromethoxy)phenoxy)phenyl)-3-(2-hydroxypropyl)-7-methyl-3,7-dihydro-1H-purine-2,6-dione]

- EC50 (CD4+ T-cells): 1000 to 5000 nM
- EC50 (CD8+ T-cells): 1000 to 5000 nM
SMILES: CC(O)Cn1c(=O)[nH]c(=O)c2c1nc(-c1ccc(Oc3ccc(OC(F)(F)F)cc3)c(C(F)(F)F)c1)n2C (centres unmarked) [Compound 155, 3-(2-hydroxypropyl)-7-methyl-8-(4-(4-(trifluoromethoxy)phenoxy)-3-(trifluoromethyl)phenyl)-3,7-dihydro-1H-purine-2,6-dione]

- EC50 (CD4+ T-cells): 100 to 500 nM
- EC50 (CD8+ T-cells): 1000 to 5000 nM
SMILES: CC(O)Cn1c(=O)[nH]c(=O)c2c1nc(-c1ccc(Oc3ccc(OC(F)(F)F)cc3)c(F)c1)n2C (centres unmarked) [Compound 188, 8-(3-fluoro-4-(4-(trifluoromethoxy)phenoxy)phenyl)-3-(2-hydroxypropyl)-7-methyl-3,7-dihydro-1H-purine-2,6-dione]

- EC50 (CD4+ T-cells): < 100 nM
- EC50 (CD8+ T-cells): < 100 nM
SMILES: Cn1c(-c2ccc(Oc3ccc(Cl)cc3)c(Cl)c2)nc2c1c(=O)[nH]c(=O)n2CC(O)CF (centres unmarked) [Compound 147, 8-(3-chloro-4-(4-chlorophenoxy)phenyl)-3-(3-fluoro-2-hydroxypropyl)-7-methyl-3,7-dihydro-1H-purine-2,6-dione]

- EC50 (CD4+ T-cells): 1000 to 5000 nM
- EC50 (CD8+ T-cells): 500 to 1000 nM
SMILES: CC(O)Cn1c(=O)[nH]c(=O)c2c1nc(-c1ccc(Oc3ccc(Cl)cc3)c(Cl)c1)n2C (centres unmarked) [Compound 180, 8-(3-chloro-4-(4-chlorophenoxy)phenyl)-3-(2-hydroxypropyl)-7-methyl-3,7-dihydro-1H-purine-2,6-dione]

- EC50 (CD4+ T-cells): 1000 to 5000 nM
- EC50 (CD8+ T-cells): 1000 to 5000 nM
SMILES: COc1cccc(Oc2ccc(-c3nc4c(c(=O)[nH]c(=O)n4CC(C)O)n3C)cc2)c1 (centres unmarked) [Compound 182, 3-(2-hydroxypropyl)-8-(4-(3-methoxyphenoxy)phenyl)-7-methyl-3,7-dihydro-1H-purine-2,6-dione]
